From publication PMC3961306, “Comparison of the Cancer Gene Targeting and Biochemical Selectivities of All Targeted Kinase Inhibitors Approved for Clinical Use” (PLoS ONE, 2014)

What was measured:
Experiment in all cases: Kinase profiling in a biochemical assay panel (mobility shift assays and ELISA), %-inhibition at 1 μM; selectivity entropy
[1] = biological target: panel of more than 300 wild-type and mutant kinases (313 kinase panel) (Homo sapiens, UniProt P06493); details: kinase CDC2/CycB1; 1 μM compound
[2] = biological target: panel of more than 300 wild-type and mutant kinases (313 kinase panel) (Homo sapiens, UniProt P07332); details: kinase FES; compound at 1 μM
[3] = biological target: panel of more than 300 wild-type and mutant kinases (313 kinase panel) (Homo sapiens, UniProt P22694)
[4] = biological target: panel of more than 300 wild-type and mutant kinases (313 kinase panel) (Homo sapiens, UniProt P27448)
Sequence of panel of more than 300 wild-type and mutant kinases (313 kinase panel) (Homo sapiens, UniProt P27448) (P27448 whole entry, change not shown): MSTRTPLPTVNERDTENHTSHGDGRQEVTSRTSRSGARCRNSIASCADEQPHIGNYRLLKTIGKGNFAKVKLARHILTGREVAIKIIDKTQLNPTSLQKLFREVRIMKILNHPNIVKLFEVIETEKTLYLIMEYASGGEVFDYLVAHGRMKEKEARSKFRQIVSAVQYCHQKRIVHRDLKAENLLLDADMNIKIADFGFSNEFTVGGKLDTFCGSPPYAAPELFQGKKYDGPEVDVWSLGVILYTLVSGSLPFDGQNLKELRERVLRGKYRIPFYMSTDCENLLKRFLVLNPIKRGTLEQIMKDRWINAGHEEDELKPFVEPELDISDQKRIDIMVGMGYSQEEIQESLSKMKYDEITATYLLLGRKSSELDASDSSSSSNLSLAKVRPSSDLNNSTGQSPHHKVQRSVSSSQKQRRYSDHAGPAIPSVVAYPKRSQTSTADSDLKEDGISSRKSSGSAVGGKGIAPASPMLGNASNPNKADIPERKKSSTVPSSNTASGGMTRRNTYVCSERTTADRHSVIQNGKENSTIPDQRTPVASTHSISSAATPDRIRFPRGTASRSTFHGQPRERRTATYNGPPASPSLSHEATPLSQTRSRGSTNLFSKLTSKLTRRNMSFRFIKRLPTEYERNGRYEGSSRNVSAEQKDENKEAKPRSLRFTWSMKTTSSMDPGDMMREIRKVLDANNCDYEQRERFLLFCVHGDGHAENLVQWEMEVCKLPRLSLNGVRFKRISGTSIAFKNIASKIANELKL

[5] = biological target: panel of more than 300 wild-type and mutant kinases (313 kinase panel) (Homo sapiens, UniProt P45983); details: kinase JNK1; compound at 1 μM
Sequence of panel of more than 300 wild-type and mutant kinases (313 kinase panel) (Homo sapiens, UniProt P45983) (P45983 whole entry, change not shown): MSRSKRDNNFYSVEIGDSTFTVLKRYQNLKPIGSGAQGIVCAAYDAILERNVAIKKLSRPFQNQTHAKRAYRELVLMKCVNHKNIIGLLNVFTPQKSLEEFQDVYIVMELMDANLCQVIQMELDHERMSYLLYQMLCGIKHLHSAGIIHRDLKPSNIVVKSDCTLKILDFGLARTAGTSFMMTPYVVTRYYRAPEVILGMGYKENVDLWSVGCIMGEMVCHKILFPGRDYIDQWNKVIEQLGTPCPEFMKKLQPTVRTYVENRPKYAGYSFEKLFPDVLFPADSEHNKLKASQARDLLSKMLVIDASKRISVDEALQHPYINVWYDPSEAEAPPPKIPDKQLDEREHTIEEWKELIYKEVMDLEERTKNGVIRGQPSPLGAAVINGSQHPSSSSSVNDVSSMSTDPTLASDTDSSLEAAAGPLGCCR

[6] = biological target: panel of more than 300 wild-type and mutant kinases (313 kinase panel) (Homo sapiens, UniProt P49674)
[7] = biological target: panel of more than 300 wild-type and mutant kinases (313 kinase panel) (Homo sapiens, UniProt P49841); details: kinase GSK3β; compound at 1 μM
[8] = biological target: panel of more than 300 wild-type and mutant kinases (313 kinase panel) (Homo sapiens, UniProt P50750)
[9] = biological target: T1, panel of more than 300 wild-type and mutant kinases (313 kinase panel) (Homo sapiens, UniProt Q16832); details: kinase DDR2; compound at 1 μM
T1 sequence (Q16832 22-855): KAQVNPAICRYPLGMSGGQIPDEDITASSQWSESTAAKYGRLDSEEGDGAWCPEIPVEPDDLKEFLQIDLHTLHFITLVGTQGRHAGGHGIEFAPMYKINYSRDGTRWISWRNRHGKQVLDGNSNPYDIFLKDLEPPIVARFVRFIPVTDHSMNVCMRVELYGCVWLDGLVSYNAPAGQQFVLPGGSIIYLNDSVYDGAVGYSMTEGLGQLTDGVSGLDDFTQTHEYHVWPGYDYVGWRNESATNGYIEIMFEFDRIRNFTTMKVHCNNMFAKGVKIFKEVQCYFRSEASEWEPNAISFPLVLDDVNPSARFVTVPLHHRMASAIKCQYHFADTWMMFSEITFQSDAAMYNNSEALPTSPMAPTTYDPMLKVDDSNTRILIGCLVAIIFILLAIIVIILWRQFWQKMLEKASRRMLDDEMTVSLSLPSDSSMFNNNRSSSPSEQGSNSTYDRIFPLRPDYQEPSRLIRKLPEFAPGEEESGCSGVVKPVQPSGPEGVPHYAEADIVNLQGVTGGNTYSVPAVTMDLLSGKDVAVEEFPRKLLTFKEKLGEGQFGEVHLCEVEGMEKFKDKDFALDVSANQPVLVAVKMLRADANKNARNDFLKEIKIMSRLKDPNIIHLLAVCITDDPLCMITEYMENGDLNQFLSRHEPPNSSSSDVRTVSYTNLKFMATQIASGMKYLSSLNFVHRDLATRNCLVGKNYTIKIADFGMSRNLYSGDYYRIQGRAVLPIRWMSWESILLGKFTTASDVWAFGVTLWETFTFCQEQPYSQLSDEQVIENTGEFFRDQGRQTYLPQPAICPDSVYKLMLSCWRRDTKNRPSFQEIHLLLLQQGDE

[10] = biological target: T2, panel of more than 300 wild-type and mutant kinases (313 kinase panel) (Homo sapiens, UniProt Q96PN8); details: kinase TSSK3; compound at 1 μM
T2 sequence (Q96PN8 1-268): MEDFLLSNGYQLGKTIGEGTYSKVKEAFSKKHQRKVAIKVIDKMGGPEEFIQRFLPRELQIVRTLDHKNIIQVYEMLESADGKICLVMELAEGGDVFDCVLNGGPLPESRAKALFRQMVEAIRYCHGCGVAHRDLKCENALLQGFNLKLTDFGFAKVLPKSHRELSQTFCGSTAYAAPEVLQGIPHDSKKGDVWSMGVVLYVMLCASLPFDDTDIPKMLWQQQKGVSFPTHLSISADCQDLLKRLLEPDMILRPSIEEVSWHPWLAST

[11] = biological target: panel of more than 300 wild-type and mutant kinases (313 kinase panel) (Homo sapiens, UniProt Q9Y2H1); details: kinase NDR2; 1 μM
Sequence of panel of more than 300 wild-type and mutant kinases (313 kinase panel) (Homo sapiens, UniProt Q9Y2H1) (Q9Y2H1 whole entry, change not shown): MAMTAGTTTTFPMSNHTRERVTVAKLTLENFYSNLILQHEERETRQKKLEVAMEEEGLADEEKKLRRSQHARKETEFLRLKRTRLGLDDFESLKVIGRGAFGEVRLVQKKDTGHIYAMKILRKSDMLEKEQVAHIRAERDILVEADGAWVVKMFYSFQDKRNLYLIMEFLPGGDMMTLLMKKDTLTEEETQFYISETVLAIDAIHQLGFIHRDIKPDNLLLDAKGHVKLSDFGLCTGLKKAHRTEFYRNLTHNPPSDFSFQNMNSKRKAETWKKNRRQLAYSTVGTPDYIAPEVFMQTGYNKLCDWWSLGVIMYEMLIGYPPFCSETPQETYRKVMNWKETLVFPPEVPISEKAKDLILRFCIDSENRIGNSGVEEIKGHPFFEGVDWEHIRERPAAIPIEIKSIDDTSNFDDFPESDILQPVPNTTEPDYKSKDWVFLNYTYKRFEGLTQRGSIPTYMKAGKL

[12] = kinase CDK9/CycT1, 1 μM compound

Row | SMILES | %-inhibition, CDC2/CycB1 [1] [%] | %-inhibition of FES [2] [%] | %-inhibition of PKACβ ([3]; kinase PKACβ, 1 μM) [%] | %-inhibition of MARK3 ([4]; kinase MARK3, compound at 1 μM) [%] | %-inhibition of JNK1 [5] [%] | %-inhibition, CK1ε ([6]; kinase CK1ε, 1 μM compound) [%] | %-inhibition of GSK3β [7] [%] | %-inhibition, CDK9/CycT1 [8, 12] [%] | %-inhibition of DDR2 [9] [%] | %-inhibition of TSSK3 [10] [%] | %-inhibition of NDR2 [11] [%] | %-inhibition of MARK3 ([4]; 1 µM) [%] | %-inhibition, CK1ε ([6]; 1 µM) [%] | %-inhibition, CDK9/CycT1 ([8]; 1 µM) [%] | %-inhibition of PKACβ ([3]; 1 µM) [%]
1 | CO[C@H]1C[C@@H]2CC[C@@H](C)[C@@](O)(O2)C(=O)C(=O)N2CCCC[C@H]2C(=O)O[C@H]([C@H](C)C[C@@H]2CC[C@@H](OCCO)[C@H](OC)C2)CC(=O)[C@H](C)/C=C(\C)[C@@H](O)[C@@H](OC)C(=O)[C@H](C)C[C@H](C)/C=C/C=C/C=C/1C [everolimus] | -19 | -2.38 | -6 | -4 | -5 | -6.43 | -6 | -4 | 0 | -3 | -8 |  |  |  | 
2 | CS(=O)(=O)CCNCc1ccc(-c2ccc3ncnc(Nc4ccc(OCc5cccc(F)c5)c(Cl)c4)c3c2)o1 [lapatinib] | 0.355 | 5 | -3 |  | -6 |  | -10 |  | 83 | 0.192 | -6 | 3.43 | 1.64 | 0.501 | 
3 | Cc1cn(-c2cc(NC(=O)c3ccc(C)c(Nc4nccc(-c5cccnc5)n4)c3)cc(C(F)(F)F)c2)cn1 [nilotinib] | 1 | -19 |  | 11 | 36 | 0.595 | 10 | 9 | 102 | 12 | -14 |  |  |  | 28
4 | CNC(=O)c1cc(Oc2ccc(NC(=O)Nc3ccc(Cl)c(C(F)(F)F)c3)c(F)c2)ccn1 [regorafenib] | 0.529 | -0.247 | -0.531 | -3.48 | -1.47 | -6 | 11 | 1 | 102 | -4.39 | -8.54 |  |  |  | 
5 | CO[C@H]1C[C@@H]2CC[C@@H](C)[C@@](O)(O2)C(=O)C(=O)N2CCCC[C@H]2C(=O)O[C@H]([C@H](C)C[C@@H]2CC[C@@H](OC(=O)C(C)(CO)CO)[C@H](OC)C2)CC(=O)[C@H](C)/C=C(\C)[C@@H](O)[C@@H](OC)C(=O)[C@H](C)C[C@H](C)/C=C/C=C/C=C/1C [temsirolimus] | -23 | -4.68 | -6 | -0.859 | -3.71 | -7 | -7.62 | -3.29 | -4 | -2.63 | -3.63 |  |  |  | 
6 | CC(=O)Nc1cccc(-n2c(=O)n(C3CC3)c(=O)c3c(Nc4ccc(I)cc4F)n(C)c(=O)c(C)c32)c1 [trametinib] | 8 | -1.55 | -5 | -3.21 | -4.68 | -5.38 | -15 | -2.31 | 0.612 | -8 | -1.48 |  |  |  | 
7 | CCCS(=O)(=O)Nc1ccc(F)c(C(=O)c2c[nH]c3ncc(-c4ccc(Cl)cc4)cc23)c1F [vemurafenib] | 10 | 18 | 2.66 | -0.226 | 1.47 | 2.46 | 8 | 1.33 | 69 | -3.19 | -2.51 |  |  |  | 
